Laboratory results reported in patent US20100204244A1, “AGENTS FOR TREATMENT OF DIABETIC RETINOPATHY AND DRUSEN FORMATION IN MACULAR DEGENERATION” (ALCON INC., priority 2003, published 2010).

Assays:
[1] = test system: Bovine retinal endothelial cells (BRECs); assay: In vitro oxidant stress assay (MTS viable cell assay) in retinal endothelial cells exposed to t-butyl hydroperoxide; assay type: cell-based
Method: The present example provides a study wherein cultured retinal endothelial cells were exposed to an oxidant stress to evaluate the protective effects of pretreatment with quercetin. In addition, the present example provides an assay system for screening compounds for therapeutic activity in nonproliferative diabetic retinopathy.
Bovine retinal endothelial cells (BRECs) (VEC Technologies, Rensselaer, N.Y.) were grown on fibronectin ([…])-coated plasticware at 37° C. in 5% CO2 in MCDB-131 Complete media (VEC Technologies, Rensselaer, N.Y.). For serum-free media (SFM) conditions, MCDB-131 was used supplemented at 5 ml/500 ml with 100× antibiotic/antimycotic, 10 mM L-glutamine, and 0.1% BSA (all from Life Technologies Inc., Grand Island, N.Y.).
The BRECs were seeded at 10,000 cells/well and allowed to attach and grow for three days in 0.2 ml/well in complete media (10% fetal bovine serum (FBS)). The complete media was replaced with SFM for the next twenty-four hours at which time 25 μM quercetin, 100 μM DL-buthionine-(S,R)-sulfoximine (BSO, Sigma, St. Louis, Mo.), and the 0.1% DMSO were added. The next day all media was replaced with SFM (0.1 ml/well) containing 0-500 μM t-butyl hydroperoxide (ICN Biomedicals, Irvine, Calif.). After four hours incubation at 37° C. in 5% CO2 the assay was started by adding 20 μl of a mixture of twenty parts MTS (3-(4,5-dimethythiazol-2-yl)-5-(3-carboxymethoxyphenyl)-2-(4-sulfophenyl)-2H-tetrazolium, inner salt) and one part PMS (phenazine methosulfate) from the Promega ClelTiter 96® AQueous Non-Radioactive Cell Proliferation Assay kit (Promega Corporation, Madison, Wis.). The plates were returned to the incubator for three hours and then net absorbances at 490 nm, obtained by subtraction of a blank mean, were recorded and used as a measure of levels of viable cells.
Using six wells per condition, the assay was carried out three times. The absorbance values were normalized such that the control wells without t-butyl hydroperoxide equaled 100%, and data from the three assays were pooled. An overall statistical difference was found among treatment groups (see FIGURE; ANOVA, P<0.05).

[2] = test system: experimentally induced diabetic rats; conditions: oral administration; cited from earlier work
cultured human RPE cells = conditions: cited from earlier work
[3] = test system: γ-glutamylcysteine synthetase; conditions: cited from earlier work
[4] = test system: phase II detoxification enzyme; conditions: human retinal pigment epithelial cells; cited from earlier work
[5] = test system: quinone reductase, glutathione-S-transferase, and glutathione reductase; conditions: various cell lines including human adult retinal pigment epithelial cells; cited from earlier work

**Q.** With `CCCCS(=N)(=O)CCC(N)C(=O)O` (racemic) [BS, DL-buthionine-(S,R)-sulfoximine] as the compound, how does the cell survival ([1]; 100 μM BSO pretreatment alone, no t-butyl hydroperoxide) read?
**A.** Its cell survival is “no effect on cell survival”.

**Q.** And the “effect on toxicity of t-butyl hydroperoxide” value ([1]; 100 μM BSO pretreatment, all t-butyl hydroperoxide concentrations)?
**A.** The value was “significantly enhanced the toxicity”.

**Q.** For `O=c1c(-c2ccc(O)cc2)coc2cc(O)cc(O)c12` [genistein], which retinal vascular leakage [2] is on record?
**A.** The retinal vascular leakage was “reduces retinal vascular leakage”.

**Q.** With `Cc1c(-c2cnccn2)ssc1=S` [oltipraz] as the compound, how does the “protection from chemical oxidants” value (cultured human RPE cells) read?
**A.** Its value is “Protection of cultured human RPE cells from chemical oxidants”.

**Q.** Which results are given for `O=c1c(O)c(-c2ccc(O)c(O)c2)oc2cc(O)cc(O)c12` [quercetin]?
**A.** glutathione levels [3]: increase glutathione levels; numbers of viable cells (net absorbance at 490 nm, normalized to control without t-butyl hydroperoxide = 100%) ([1]; 25 μM quercetin pretreatment, then 0-500 μM t-butyl hydroperoxide 4 h, versus control group at each t-butyl hydroperoxide concentration): higher numbers of viable cells than in the control group

**Q.** For `C[S+]([O-])CCCCN=C=S` (stereo not shown) [sulforaphane], which “induction of a phase II detoxification enzyme” value [4] is on record?
**A.** The value was “induction of a phase II detoxification enzyme”.

**Q.** What about the enzyme induction [5] of the same compound?
**A.** Its enzyme induction is “induce quinone reductase, glutathione-S-transferase, and glutathione reductase”.

**Q.** And the “protection from chemical oxidants” value (cultured human RPE cells)?
**A.** Its value is “Protection of cultured human RPE cells from chemical oxidants”.

**Q.** For `CC(C)(C)OO` [t-butyl hydroperoxide], which cell survival ([1]; t-butyl hydroperoxide exposure 4 h, all concentrations up to 500 μM) is on record?
**A.** The cell survival was “significant reductions in cell survival”.
